Test system: lung gene expression
Assay: RNA sequencing of lung tissue (BLM/EL244 vs BLM)
Type: in vivo, mouse
Description: RNA quality was assessed using an Agilent TapeStation 4150 with the High Sensitivity […] ScreenTape (Agilent), according to the manufacturer’s protocols. For library preparation, the QuantSeq 3’mRNA-Seq Library Prep Kit (Lexogen) was used according to manufacturer’s instructions. Briefly, 500 ng of RNA from each sample was used for first-strand synthesis, followed by RNA template removal, and second-strand synthesis initiated by random primers. In-line barcodes were introduced at this step, and this was followed by magnetic bead-based purification. The resulting libraries were amplified for 15 cycles and re-purified, with quantity and quality assessed on a Qubit 4 Fluorometer with the Invitrogen Qubit dsDNA HS Assay and an Agilent Tapestation 4150 with the High Sensitivity D1000 assay kit, respectively. The quantified libraries were pooled equimolarly; 50ng of total library mix was used for Adapter Conversion PCR Amplification using the Universal Library Conversion Kit (App-A), Version: V1.0 (MGI Tech Co., Ltd.), according to the manufacturer’s instructions.
The quantity and quality of the purified adapter conversion PCR (AC-PCR) product were evaluated on a Qubit 4 Fluorometer with the Invitrogen Qubit dsDNA HS Assay and on an Agilent Tapestation 4150 with the High Sensitivity D1000 assay kit, respectively. This was followed by DNA denaturation, Single-Strand Circularisation, Enzymatic Digestion, Enzymatic Digestion Product Cleanup and Quality Control steps on 1 pmol of AC-PCR product, according to the Universal Library Conversion Kit (App-A) User Manual (Version: A3).
Finally, 60 fmol of ssCirDNA were used for DNB preparation and sequencing on a DNBSEQ-G400 platform at the BSRC Alexander Fleming Genomics Facility, using a G400 App-A FCS SE100 High-throughput Sequencing Set (MGI Tech Co., Ltd.), according to the manufacturer’s instructions.
Alignment of the FASTQ files was performed against the mouse genome build mm10 using a custom Bash script.[143] Read counting on the 3′ UTRs and differential expression analysis were conducted using the metaseqR2 bioconductor package.[144] Genes corresponding to the following biotypes were excluded: polymorphic_pseudogene, processed_transcript, pseudogene, IG_V_pseudogene, misc_RNA, IG_C_gene, IG_J_gene, IG_D_gene, IG_LV_gene, TR_V_gene, TR_V_pseudogene, TEC, and processed_pseudogene. Gene counts were normalized with DESEQ[145] through metaseqR2. Genes with more than 10 counts in at least 50% of the samples were kept for further processing. For differential expression analysis, the PANDORA algorithm[146] was used to estimate a meta p-value integrating the results from the DESEQ, DESEQ2,[147] edgeR,[148] limma,[149] NBPSeq,[150] and NOISeq[151] algorithms. All additional parameters were set to default values.
Pathway enrichment analysis was performed for the Gene Ontology Biological process (BP) and Molecular Function (MF) terms through GeneCodis 4.[152] The volcano plots, scatterplots, Venn diagrams, and dot plots were generated using the ggplot2 Bioconductor package.

O=C1NC(=O)C(Cc2ccc(OCCC3CCN(C(=O)OCc4cc(Cl)cc(Cl)c4)CC3)cc2)S1 (stereo not drawn) [EL244, 3,5-dichlorobenzyl 4-(2-(4-((2,4-dioxothiazolidin-5-yl)methyl)phenoxy)ethyl)piperidine-1-carboxylate]
Myh6 log2 nFC BLM/EL244 vs BLM (DEG Myh6, nFC: normalised fold change): 2.62 | Myh7 log2 nFC BLM/EL244 vs BLM (DEG Myh7, nFC: normalised fold change): 2.22 | Myl4 log2 nFC BLM/EL244 vs BLM (DEG Myl4, nFC: normalised fold change): 1.94 | Myl7 log2 nFC BLM/EL244 vs BLM (DEG Myl7, nFC: normalised fold change): 1.90 | Mylk3 log2 nFC BLM/EL244 vs BLM (DEG Mylk3, nFC: normalised fold change): 2.03 | Myom2 log2 nFC BLM/EL244 vs BLM (DEG Myom2, nFC: normalised fold change): 1.87 | log2 nFC BLM/EL244 vs BLM (DEG Ncapd2): -1.29 | Ndrg2 log2 nFC BLM/EL244 vs BLM (DEG Ndrg2, nFC: normalised fold change): 0.88 | Nek5 log2 nFC BLM/EL244 vs BLM (DEG Nek5, nFC: normalised fold change): 0.81 | Ngp log2 nFC BLM/EL244 vs BLM (DEG Ngp, nFC: normalised fold change): 2.72 | Nhlrc1 log2 nFC BLM/EL244 vs BLM (DEG Nhlrc1, nFC: normalised fold change): 1.34 | log2 nFC BLM/EL244 vs BLM (DEG Nnat): -1.34 | Nova2 log2 nFC BLM/EL244 vs BLM (DEG Nova2, nFC: normalised fold change): 0.90 | Npr3 log2 nFC BLM/EL244 vs BLM (DEG Npr3, nFC: normalised fold change): 1.53 | Nr1d1 log2 nFC BLM/EL244 vs BLM (DEG Nr1d1, nFC: normalised fold change): 0.84 | Nr4a3 log2 nFC BLM/EL244 vs BLM (DEG Nr4a3, nFC: normalised fold change): 1.63 | log2 nFC BLM/EL244 vs BLM (DEG Nrcam): -1.26 | log2 nFC BLM/EL244 vs BLM (DEG Nrep): -1.26 | Nrgn log2 nFC BLM/EL244 vs BLM (DEG Nrgn, nFC: normalised fold change): 1.04 | Nrn1 log2 nFC BLM/EL244 vs BLM (DEG Nrn1, nFC: normalised fold change): 1.84 | Nrxn2 log2 nFC BLM/EL244 vs BLM (DEG Nrxn2, nFC: normalised fold change): 0.88 | Ogn log2 nFC BLM/EL244 vs BLM (DEG Ogn, nFC: normalised fold change): 0.86 | log2 nFC BLM/EL244 vs BLM (DEG Ooep): -1.51 | Osgin1 log2 nFC BLM/EL244 vs BLM (DEG Osgin1, nFC: normalised fold change): 0.74 | Pcolce2 log2 nFC BLM/EL244 vs BLM (DEG Pcolce2, nFC: normalised fold change): 0.98 | Pcp4l1 log2 nFC BLM/EL244 vs BLM (DEG Pcp4l1, nFC: normalised fold change): 0.75 | log2 nFC BLM/EL244 vs BLM (DEG Pdgfc): -1.47 | log2 nFC BLM/EL244 vs BLM (DEG Pdlim4): -1.24 | Phactr1 log2 nFC BLM/EL244 vs BLM (DEG Phactr1, nFC: normalised fold change): 0.74 | Phf1 log2 nFC BLM/EL244 vs BLM (DEG Phf1, nFC: normalised fold change): 0.75 | Phf24 log2 nFC BLM/EL244 vs BLM (DEG Phf24, nFC: normalised fold change): 1.57 | log2 nFC BLM/EL244 vs BLM (DEG Pla1a): -1.42 | Pla2g1b log2 nFC BLM/EL244 vs BLM (DEG Pla2g1b, nFC: normalised fold change): 0.79 | log2 nFC BLM/EL244 vs BLM (DEG Plk4): -1.31 | Pln log2 nFC BLM/EL244 vs BLM (DEG Pln, nFC: normalised fold change): 2.30 | Pmvk log2 nFC BLM/EL244 vs BLM (DEG Pmvk, nFC: normalised fold change): 1.09 | log2 nFC BLM/EL244 vs BLM (DEG Pole): -1.58 | log2 nFC BLM/EL244 vs BLM (DEG Pole2): -1.50 | Ppbp log2 nFC BLM/EL244 vs BLM (DEG Ppbp, nFC: normalised fold change): 1.09 | Ppl log2 nFC BLM/EL244 vs BLM (DEG Ppl, nFC: normalised fold change): 0.87 | Ppp4r4 log2 nFC BLM/EL244 vs BLM (DEG Ppp4r4, nFC: normalised fold change): 1.26 | Pram1 log2 nFC BLM/EL244 vs BLM (DEG Pram1, nFC: normalised fold change): 1.64 | Prf1 log2 nFC BLM/EL244 vs BLM (DEG Prf1, nFC: normalised fold change): 1.34 | Prmt8 log2 nFC BLM/EL244 vs BLM (DEG Prmt8, nFC: normalised fold change): 1.27 | Prob1 log2 nFC BLM/EL244 vs BLM (DEG Prob1, nFC: normalised fold change): 0.76 | log2 nFC BLM/EL244 vs BLM (DEG Psrc1): -1.26 | Ptgfr log2 nFC BLM/EL244 vs BLM (DEG Ptgfr, nFC: normalised fold change): 0.93 | log2 nFC BLM/EL244 vs BLM (DEG Pth1r): -1.40 | Pwwp3b log2 nFC BLM/EL244 vs BLM (DEG Pwwp3b, nFC: normalised fold change): 1.22 | Rab44 log2 nFC BLM/EL244 vs BLM (DEG Rab44, nFC: normalised fold change): 1.61 | Rapgef5 log2 nFC BLM/EL244 vs BLM (DEG Rapgef5, nFC: normalised fold change): 0.88 | Rassf10 log2 nFC BLM/EL244 vs BLM (DEG Rassf10, nFC: normalised fold change): 1.19 | Rbfox3 log2 nFC BLM/EL244 vs BLM (DEG Rbfox3, nFC: normalised fold change): 1.26 | Rbm24 log2 nFC BLM/EL244 vs BLM (DEG Rbm24, nFC: normalised fold change): 1.20 | Rdh12 log2 nFC BLM/EL244 vs BLM (DEG Rdh12, nFC: normalised fold change): 1.74 | Retnlg log2 nFC BLM/EL244 vs BLM (DEG Retnlg, nFC: normalised fold change): 1.46 | Rgs9 log2 nFC BLM/EL244 vs BLM (DEG Rgs9, nFC: normalised fold change): 1.01

— PMC13198257, “An aerosolized dual-action autotaxin inhibitor-PPARγ agonist for the treatment of pulmonary fibrosis” (Cell Reports Medicine, 2026)
